Test results published in patent US7635693B2, “Methods for preventing and treating cancer using N-thiolated β-lactam compounds and analogs thereof” (University of South Florida, priority 2002, dated 2009).
“And” between values parts separate entries of the source, which are not always exact repeats. Identical values can stand only once. Like-named read-outs stand apart in the source and are kept apart here.

Assays:
PARP [1] = experiment: PARP cleavage, Western blot, Jurkat T cells; assay type: cell-based, human; conditions: 50 μM, 8 hours
Source text: A library of β-lactam analogs was screened for their ability to induce apoptosis. […] This is followed by preparation of cell lysates and measurement of apoptosis-specific caspase-3 activation (by cell-free caspase-3 activity assay) and PARP cleavage (by Western blotting).

Jurkat T cells [2] = experiment: Morphological changes of treated Jurkat T cells; assay type: cell-based, human; conditions: 50 μM, 8 hours
Jurkat T cells [3] = experiment: TUNEL assay (DNA strand breaks), Jurkat T cells; assay type: cell-based, human; conditions: for TUNEL-positive cell population (DNA damage): 4 hour
Protocol: Terminal deoxynucleotidyl transferase-mediated UTP nick end labeling (TUNEL) was performed to determine the extent of DNA strand breaks. TUNEL assay was performed with an APO-Direct kit per the manufacturer's instructions. In brief, cells are fixed in 1% paraformaldehyde and ethanol at […] overnight and then permeabilized with Proteinase K. After permeabilization, Fluorescein conjugated dNTP's and TdT enzyme (Terminal Deoxynucleotidyl Transferase) are added to the cells. The TdT enzyme is then able to label free ends of DNA with Fluorescein conjugated dNTPs that could then be detected by flow cytometry.
The assay was performed following manufacturer's instruction using the APO-Direct kit. In brief, the harvested cells were fixed in 1% paraformaldehyde for 15 min on ice, washed with PBS, and then fixed again in 70% ethanol at −20° C. overnight. The cells were then incubated in DNA labeling solution (containing terminal deoxynucleotidyl transferase (TdT) enzyme, fluorescein-conjugated dUTP and reaction buffer) for 90 min at 37° C. After removing the DNA labeling solution by rinsing cells with Rinsing Buffer, the cells were incubated with the Propidium Iodide/RNase A solution, incubated for 30 min at room temperature in the dark, and then analyzed by flow cytometry within 3 h of staining.

Jurkat T cells [4] = experiment: Flow cytometry cell cycle distribution and sub-G1 population, Jurkat T cells; assay type: cell-based, human; conditions: 50 μM; for increase in S phase population / sub-G1 apoptotic population: 5 hours
Protocol: Cell Death Differ 5:1062-75. At each time point, cells are harvested, counted, and washed twice with PBS. Cells (5×10^6) are suspended in 0.5 ml PBS, fixed in 5 ml of 70% ethanol for at least 2 h at −20° C., centrifuged, resuspended again in 1 ml of propidium iodide staining solution (50 μg propidium iodide, 100 units RNase A and 1 mg glucose per ml PBS), and incubated at room temperature for 30 minutes. The cells are then analyzed with FACScan (Becton Dickinson Immunocytometry, CA), ModFit LT and WinMDI V.2.8 cell cycle analysis software (Verity Software; Topsham, Me.). The cell cycle distribution is shown as the percentage of cells containing G1, S, G2, and M DNA judged by propidium iodide staining. The apoptotic population is determined as the percentage of cells with sub-G1 (<G1) DNA content.

caspase-3 [5] = experiment: Cell-free caspase-3 activity assay on extracts of treated Jurkat T cells; assay type: cell-based, human; conditions: 50 μM, 8 hours
Protocol: (§1) Briefly, a prepared protein extract (20 μg) is incubated in a buffer containing 50 mM Tris/pH 8.0 along with each respective caspase substrate at 20 μM in a 96 well plate. The reaction mixture is incubated at 37° C. for 2 h.
A library of β-lactam analogs was screened for their ability to induce apoptosis. The screening procedure is accomplished by treating human Jurkat T cells with each compound at 50 μM for 8 hours. This is followed by preparation of cell lysates and measurement of apoptosis-specific caspase-3 activation (by cell-free caspase-3 activity assay) and PARP cleavage (by Western blotting).

p38 MAP kinase = experiment: p38 phosphorylation, Western blot, Jurkat T cells; assay type: cell-based, human; conditions: for normalized increase in phosphorylation of p38 over control: FIG. 8D
Source text: It has been shown that multiple stimuli including DNA damaging agents induce apoptosis via activation of p38 MAP kinase (Kummer J L, et al., 1997, Apoptosis induced by withdrawal of trophic factors is mediated by p38 mitogen-activated protein kinase. J. Biol Chem 272:20490-4; Sanchez-Prieto R, et al., 2000, A role for the p38 mitogen-acitvated protein kinase pathway in the transcriptional activation of p53 on genotoxic stress by chemotherapeutic agents. Cancer Res 60:2464-72). […] The levels of Tyr-182 phosphorylated p38 protein were increased by 3-fold at 2 h and reached its maximum (˜9-fold) by 6 h (FIG. 8A). In has been shown that dual phosphorylation of p38 on Tyr-182 and Thr-180 activates this kinase (Raingeaud J, et al., 1995, Pro-inflammatory cytokines and environmental stress cause p38 mitogen-activated protein kinase activation by dual phosphorylation on tyrosine and threonine. J Biol Chem 270:7420-6). […] Therefore, lactam 1-induced DNA damage triggered activation of p38 before S population accumulation and apoptosis induction.

Jurkat T cells [6] = assay type: cell-based, human; conditions: for non-viable cell population / cell death (trypan blue): 50 μM
Protocol: The trypan blue exclusion assay was performed by injecting 10 μl of cell suspension containing 0.2% trypan blue dye into a hemoicytometer and counting. Numbers of cells that absorbed the dye and those that excluded the dye are counted, from which the percentage of non-viable cell number to total cell number is calculated.

NK cells (YT line) = conditions: YT cells, 2, 10, 25, and 50 μM, 24 h
Protocol: The trypan blue dye exclusion assay was performed by mixing 20 μl of cell suspension with 20 μl of 0.4% trypan blue dye before injecting into a hemocytometer and counting. The number of cells that absorbed the dye and those that exclude the dye were counted, from which the percentage of nonviable cell number to total cell number was calculated.

caspase-3 [7] = conditions: LNCaP cells, 48 h
Protocol: To measure cell-free caspase-3 activity, whole cell extracts (20-30 μg) from untreated or treated LNCaP cells were incubated with 20 μM of the fluorogenic substrate caspase-3/caspase-7 (Ac-DEVD-AMC) for 30 min at 37° C. in 100 μl of assay buffer (50 mM Tris, pH 8.0).

PARP [8] = conditions: YT cells, 2, 10, 25, and 50 μM, 12 h
Protocol: Human Jurkat T cells and human prostate cancer LNCaP cells were cultured in RPMI 1640 medium, supplemented with 10% fetal bovine serum, 100 units/ml penicillin, and 100 μg/ml streptomycin. Human YT cells were cultured in RPMI 1640 medium supplemented with 1 mM MEM sodium pyruvate solution, 0.1 mM MEM non-essential amino acids solution, 10% fetal bovine serum, 100 units/ml penicillin, and 100 μg/ml streptomycin. All cell lines were maintained at 37° C. in a humidified incubator with an atmosphere of 5% CO2. […] Briefly, cells were harvested, washed with PBS and homogenized in a lysis buffer (50 mM Tris-HCl, pH 8.0, 5 mM EDTA, 150 mM NaCl, 0.5% NP-40, 0.5 mM phenylmethylsulfonyl fluoride, and 0.5 mM dithiothreitol) for 30 min at 4° C. Afterwards, the lysates were centrifuged at 12000×g for 15 min at 4° C. and the supernatants collected as whole-cell extracts. Equal amounts of protein extract (60 μg) were resolved by SDS-polyacrylamide gel electrophoresis and transferred to a nitrocellulose membrane (Schleicher & Schuell, Keene, N. H.) using a Semi-Dry Transfer System (Bio-Rad, Hercules, Calif.). The enhanced chemiluminescence Western blot analysis was then performed using specific antibodies to the proteins of interest.

LNCaP cells = LNCaP cells in soft agar, 50 μM, 21 day-incubation
Protocol: The soft agar assay was performed as described previously (Menter D G, Sabichi A L, Lippman S M., 2000, Selenium effects on prostate cell growth. Cancer Epidemiol Biomarkers Prev 9:1171-82) with a few modifications. In brief, in a six-well plate, a bottom feeder layer (0.6% agar) was prepared with DMEM media containing 10% fetal bovine serum, 100 units/ml penicillin, and 100 μg/ml streptomycin. […] Plates were incubated at 37° C. in 5% CO2 in a humidified incubator for three weeks. MTT (1 mg/ml) was added to each well and incubated overnight to allow complete formation of purple formazan crystals. The plates were then scanned and photographed, and the number of colonies was quantified by Quantity one v.4.0.3 software (Bio-Rad, Hercules, Calif.).

caspase-3 [9] = experiment: Cell-free caspase-3 activity in lysates of VP-16-treated Jurkat T cells, inhibitor present; assay type: biochemical, human; conditions: lysates of Jurkat T cells treated with 50 μM VP-16 for 5 hours
Protocol: as §1

caspase-8 = experiment: Cell-free caspase-8 activity in lysates of VP-16-treated Jurkat T cells, inhibitor present; assay type: biochemical, human; conditions: lysates of Jurkat T cells treated with 50 μM VP-16 for 5 hours
Protocol: as §1

caspase-9 = experiment: Cell-free caspase-9 activity in lysates of VP-16-treated Jurkat T cells, inhibitor present; assay type: biochemical, human; conditions: lysates of Jurkat T cells treated with 50 μM VP-16 for 5 hours
Protocol: as §1

## COC1C(=O)NC1c1ccccc1Cl (racemic) [lactam 2]
PARP [1]
  PARP cleavage: induces neither caspase-3 activation nor PARP cleavage
Jurkat T cells [2]
  morphological changes: no morphological changes
Jurkat T cells [3]; 50 μM
  TUNEL-positive cell population (DNA damage): did not cause any DNA damage
Jurkat T cells [4]
  increase in S phase population: did not induce accumulation of either S or sub-G1 populations
  sub-G1 apoptotic population: did not induce accumulation of either S or sub-G1 populations
caspase-3 [5]
  caspase-3 activation: induces neither caspase-3 activation nor PARP cleavage

## CCSN1C(=O)C(OC)C1c1ccccc1Cl (racemic) [lactam 3]
PARP [1]
  decrease of PARP cleavage relative to lactam 1: ~50%
Jurkat T cells [3]; 50 μM
  TUNEL-positive cell population (DNA damage): 16%
Jurkat T cells [4]
  increase in S phase population: 15%
  sub-G1 apoptotic population: 10%
p38 MAP kinase
  normalized increase in phosphorylation of p38 over control: 3.2 fold
caspase-3 [5]
  decrease of caspase-3 activity relative to lactam 1: ~50%

## CCCCSN1C(=O)C(OC)C1c1ccccc1Cl (racemic) [lactam 4]
PARP [1]
  decrease of PARP cleavage relative to lactam 1: ~65%
Jurkat T cells [3]; 50 μM
  TUNEL-positive cell population (DNA damage): 3%
Jurkat T cells [4]
  increase in S phase population: 8%
  sub-G1 apoptotic population: 2%
p38 MAP kinase
  normalized increase in phosphorylation of p38 over control: 2.6 fold
caspase-3 [5]
  decrease of caspase-3 activity relative to lactam 1: ~65%

## COC1C(=O)N(SC)C1c1ccc(Cl)cc1 (racemic) [lactam 6]
PARP [1]
  decrease of PARP cleavage relative to lactam 1: ~20%
caspase-3 [5]
  decrease of caspase-3 activity relative to lactam 1: ~20%

## COC1C(=O)N(SCc2ccccc2)C1c1ccccc1Cl (racemic) [lactam 7]
PARP [1]
  decrease of PARP cleavage relative to lactam 1: ~70%
caspase-3 [5]
  decrease of caspase-3 activity relative to lactam 1: ~70%

## COC1C(=O)N(SC)C1c1ccccc1Br (racemic) [lactam 23]
Jurkat T cells [6]; 24 h
  non-viable cell population / cell death (trypan blue): 55%

## COC1C(=O)N(SC)C1c1ccccc1I (racemic) [lactam 46]
Jurkat T cells [6]; 24 h
  non-viable cell population / cell death (trypan blue): 60%

## COC1C(=O)N(SC)C1c1ccccc1[N+](=O)[O-] (racemic) [lactam 47]
Jurkat T cells [3]; 50 μM, 12-24 h
  TUNEL-positive cells: 82-90%
Jurkat T cells [3]; 50 μM, 3 h
  cells with DNA strand breaks (TUNEL): ~70%
Jurkat T cells [6]; 10 μM, 24 h
  cell death (trypan blue): 25%
Jurkat T cells [6]; 25 μM, 3 h
  cell death (trypan blue): 15%
Jurkat T cells [6]; 25 μM, 6 h
  trypan blue-positive cells: 24%
Jurkat T cells [6]; 25 μM, 24 h
  cell death (trypan blue): 45%
Jurkat T cells [6]; 24 h
  non-viable cell population / cell death (trypan blue): ~94% and 80-90%
Jurkat T cells [6]; 24 h, trypan blue dose-response
  potency relative to lactam 1: ~2 fold
NK cells (YT line)
  cell death (trypan blue): neither cell death
Jurkat T cells [4]; 12 h
  sub-G1 population: 34%
Jurkat T cells [4]; 24 h
  sub-G1 population: 57%
caspase-3 [7]; 2 μM
  increase in caspase-3 activity over control: 2 fold
caspase-3 [7]; 10 μM
  increase in caspase-3 activity over control: 2.5 fold
caspase-3 [7]; 25 μM
  increase in caspase-3 activity over control: 4.2 fold
PARP [8]
  PARP cleavage: nor PARP cleavage
LNCaP cells
  inhibition of colony formation: ~100%

## COC1C(=O)N(SC)C1c1ccccc1 (racemic) [lactam 48]
Jurkat T cells [6]; 24 h
  non-viable cell population / cell death (trypan blue): ~25%

## COC1C(=O)N(SC)C1c1ccccc1F (racemic) [lactam 49]
Jurkat T cells [6]; 24 h
  non-viable cell population / cell death (trypan blue): ~35%

## CC(C)(C)OC(=O)NC(CC(=O)O)C(=O)CF [Boc-D-FMK, N-tert-butoxycarbonyl-Asp-fluoromethyl ketone]
caspase-3 [9]
  direct inhibition of caspase-3 activity: completely blocked
caspase-8
  direct inhibition of caspase-8 activity: completely blocked
Jurkat T cells [3]; 4 hours, 50 μM lactam 1 plus PD 169316 at 30 μM or Boc-D-FMK at 50 μM
  TUNEL positivity on co-treatment with lactam 1: 97%
p38 MAP kinase; 4 hours, 50 μM lactam 1 plus inhibitor at 50 μM
  effect on lactam 1-induced p38 phosphorylation: not affected
caspase-9
  direct inhibition of caspase-9 activity: completely blocked

## O=C1CC2(CCCCC2)CN1 [lactam 5]
PARP [1]
  decrease of PARP cleavage relative to lactam 1: ~20%
caspase-3 [5]
  decrease of caspase-3 activity relative to lactam 1: ~20%
